Experiment: gradient 5% acetonitrile 3 min, to 50% in 2 min, to 85% in 15 min, held 3 min, 100 µL/min
Conditions: column: Zorbax Extend-C18 2.1 x 50 mm; eluents: water / acetonitrile, 0.1% formic acid
In short: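 Retention times come from adduct peaks that were picked computationally and then checked by hand. The standards, pure and pooled in mixtures of ~100 molecules, were run on a Zorbax Extend-C18 column (2.1 × 50 mm, 1.8 μm) at 100 μL/min with water and acetonitrile, each with 0.1% formic acid. Detection was by quadrupole time-of-flight mass spectrometry in positive and negative ionization mode, with a dead volume of 40 μL and a dwell volume of 900 μL.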

Row | Compound | RP-LC retention time
1 | Cc1ccc(NC(=O)N2CCC3(CC2)NC(=O)c2ccccc2O3)cc1C | 812 s
2 | Nc1nc(SCC(=O)NCC2CCCO2)n[nH]1 (stereo not given) | 469 s
3 | O=C(NCc1ccc2c(c1)OCO2)c1ccc(OCC(=O)C2CC2)cc1 | 736 s
4 | O=C(Cn1ncc2c(N3CCN(c4ccccn4)CC3)ncnc21)Nc1ccccc1C(F)(F)F | 610 s
5 | CCCCN(CC)C(=O)c1cc2c(=O)n3ccccc3nc2n1C | 813 s
6 | COc1cccc(NC(=O)N2CCC3(CC2)NC(=O)c2ccc(F)cc2N3C)c1 | 723 s
7 | COc1cc(OC)cc(-c2nc(-c3cn(Cc4ccccc4)nn3)no2)c1 | 1000 s
8 | CC(NC(=O)C1CCN(c2cncnc2N2CCCC2)CC1)c1ccccc1 (stereo not given) | 660 s
9 | CN1CCC(N2CCN(S(=O)(=O)c3ccccc3F)CC2)C1=O (stereo not given) | 545 s
10 | Cc1cccc(NC(=O)NC2CCN(c3ccc(C)c(C)c3)C2=O)c1 (stereo not given) | 923 s
11 | O=C(NCc1ccco1)C1CCN(Cc2cc3ccccc3n2Cc2cccc(Cl)c2)CC1 | 853 s
12 | O=C(Cn1nc2c(N3CCSCC3)nccn2c1=O)NCCc1ccc(Cl)cc1 | 850 s
13 | COc1ccc(CNC(=O)CN2C(=O)C3CCCCN3c3ccc(S(=O)(=O)N(C)C)cc32)cc1 (stereo not given) | 887 s
14 | CCCCC(=O)Nc1ccc2c(c1)nc(CN1CCN(C)CC1)n2C(C)C | 575 s
15 | COc1ccc(-c2csc(Nc3ccccc3OC)n2)cc1 | 1130 s
16 | O=C(Nc1ccc(-n2cnc(C(=O)N3CCN(c4ccccc4)CC3)c2)nc1)C1CC1 | 726 s
17 | O=C(NCCN1CCOCC1)c1csc(-c2ccc(N3CCCC3)nc2)n1 | 542 s
18 | Cn1nc(C(=O)N2CCCCC2)c2c1CCN(C(=O)CCC(=O)N1CCC(N3CCCCC3)CC1)C2 | 586 s
19 | CCn1cnc(S(=O)(=O)N2CCC(C(=O)NCc3ccc(OC)cc3)CC2)c1 | 674 s
20 | COc1ccc(NC(=O)CSc2cc(N3CCN(c4ccccc4F)CC3)ncn2)cc1 | 1010 s
21 | O=C(CN1CCN(Cc2cccc(Cl)c2)C1=O)NCc1ccc(N2CCOCC2)cc1 | 736 s
22 | CCC(=O)Nc1ccc(-n2cnc(C(=O)N3CCN(c4cccc(OC)c4)CC3)c2)nc1 | 717 s

Row | Compound | RP-LC retention time
23 | O=C(c1cccc(Br)c1)N1CCN(Cc2noc3ccccc23)CC1 | 756 s
24 | COc1ccc2[nH]c(=O)c(CCC(=O)NCCCOC(C)C)cc2c1 | 649 s
25 | CCCC(=O)O[C@]1(C(=O)CO)CC[C@H]2[C@@H]3CCC4=CC(=O)CC[C@]4(C)[C@H]3[C@@H](O)C[C@@]21C | 1010 s
26 | Cc1nc(CCNS(=O)(=O)Cc2cccc(Cl)c2)no1 | 792 s
27 | COc1ccc(C(C)NC(=O)C2C(=O)NC3(C)CC2c2ccccc2O3)cc1 (stereo not given) | 747 s
28 | Cn1nc(-c2nnc(-c3ccc(F)cc3)o2)c2c1CCN(S(=O)(=O)c1cc(F)ccc1F)C2 | 958 s
29 | CN(CC(=O)N1CC=C(c2ccccc2)CC1)S(=O)(=O)c1ccc2c(c1)CCCC(=O)N2 | 746 s
30 | CCNC(=O)C1Cn2cccc2C(=O)N1C (stereo not given) | 569 s
31 | COc1cccc(CN(C)C2CCc3nn(CC4CC4)c(=O)n3CC2)n1 (stereo not given) | 587 s
32 | Cc1cccc(N2CCN(CC(O)c3ccc4c(c3)OCO4)CC2)c1C (stereo not given) | 720 s
33 | Cc1nc(-c2ccccc2)sc1C(=O)N1CCN(c2ccc(-n3ccnc3C)nn2)CC1 | 572 s
34 | CCOC(=O)C(C)NC(=O)N1CCN(Cc2nc3cccnc3n2-c2ccc(CC)cc2)CC1 (stereo not given) | 659 s
35 | CCNC(=O)C1CCCN(c2nc3ncn(CC(=O)Nc4cccc(Cl)c4)c(=O)c3s2)C1 (stereo not given) | 701 s
36 | O=C1COc2c1ccc(O)c2O | 623 s
37 | O=C(Nc1ccccc1)N1CCN(c2cnn3c(C4CC4)nnc3c2)CC1 | 625 s
38 | O=C(CN1C(=O)C2CCCCN2c2ccc(S(=O)(=O)N3CCCCC3)cc21)NC1CCCCC1 (stereo not given) | 1030 s
39 | O=C(NCc1ccc(F)cc1)C1CCN(c2cncnc2N2CCCC2)CC1 | 659 s
40 | Cc1sc(NC(=O)c2cccc(F)c2)nc1-c1ccccc1 | 1150 s
41 | CCCn1cc(CCNS(=O)(=O)c2cccc(Cl)c2)c2cccnc21 | 804 s
42 | O=C(NCC1(c2cccs2)CCOCC1)c1nc2ccccc2s1 | 596 s
43 | CC(=O)N1CCc2cc(N3CC(C(=O)Nc4ccc(C)cc4Cl)CC3=O)ccc21 (stereo not given) | 735 s
44 | CCCn1c(=O)c(C)nc2cc(-c3noc(-c4ccccc4F)n3)ccc21 | 1130 s

Second part, the compound after the results:

Row | RP-LC retention time | Compound
45 | 720 s | COc1ccc(NC(=O)NC2CCN(c3ccc(C)cc3)C2=O)cc1OC (stereo not given)
46 | 710 s | COCCNC(=O)C1CCN(S(C)(=O)=O)c2cc(Cl)ccc2O1 (stereo not given)
47 | 910 s | O=c1n(Cc2ccccc2)nc2ccc(S(=O)(=O)N3CCCCC3)cn12
48 | 837 s | CCN1c2ccc(Cl)cc2C(=O)NC12CCN(C(=O)NCc1ccccc1)CC2
49 | 935 s | CCOc1ccc(C(=O)c2ccc(Cl)c(N)c2)cc1
50 | 966 s | O=C(Cc1c(Sc2ccc(F)cc2)[nH]c2ccccc12)N1CCN(c2ncccn2)CC1
51 | 649 s | CC(C)C[C@H](NC(=O)Cn1cnc2ccccc2c1=O)C(=O)O
52 | 868 s | O=C(Nc1ccccc1C(F)(F)F)c1ccc(N2CCCC2)nn1
53 | 795 s | Cn1c(=O)c2cc(C(=O)NCc3ccccc3Cl)sc2n(C)c1=O
54 | 838 s | NNC(=O)CSc1nc2scc(-c3ccccc3)c2c(=O)n1-c1ccccc1
55 | 694 s | CCCNc1cc(N2CCC(CCC(=O)NCc3ccc(F)cc3F)CC2)ncn1
56 | 674 s | O=C(NCC1CCN(S(=O)(=O)C2CC2)CC1)c1cc(=O)c2ccccc2o1
57 | 649 s | CC(=O)Nc1nsc(N2CCC(C(=O)NCc3ccc(F)cc3)CC2)n1
58 | 641 s | O=C(CCc1nnn2c1CN(C(=O)Cc1c[nH]c3ccccc13)CC2)N1CCCC1
59 | 969 s | Cc1ccc(-c2nnc(-c3ccccc3Cl)o2)cc1S(=O)(=O)N1CCOCC1
60 | 895 s | Cc1nc(-c2csc(S(=O)(=O)N3CCC(C(=O)NCc4ccccc4Cl)CC3)c2)no1
61 | 963 s | COc1ccc(Nc2nc(-c3nnn(-c4cccc(Cl)c4)c3C)ns2)cc1OC
62 | 994 s | Cc1cc(-c2nnc(-c3ccccc3)o2)c(C)n1CC(=O)Nc1cc(F)ccc1F
63 | 615 s | CCOCCCNC(=O)CCc1cc2cc(OC)ccc2[nH]c1=O
64 | 636 s | CN1C(=O)CC2(C)C1=CCc1scnc12 (stereo not given)
65 | 772 s | Cc1ccc(C)c(Nc2nc(-c3ccncc3)nc3ccccc23)c1
66 | 601 s | O=C(CCc1nnc2c3cc(-c4ccc(F)cc4)nn3ccn12)NCCc1cccnc1
67 | 576 s | CCN1CCN(CCNC(=O)c2ccc(CS(=O)c3cccc(Cl)c3)o2)CC1 (stereo not given)

Row | RP-LC retention time | Compound
68 | 1050 s | Cc1cccc(CN2C(=O)N(c3cccc(F)c3)c3ncccc3S2(=O)=O)c1
69 | 880 s | Cc1nn(Cc2ccc(C(=O)NC(C)C)cc2)c(C)c1S(=O)(=O)N1CCC(C)CC1
70 | 1100 s | C[C@H]1CN(C(=O)Cc2c(F)cccc2Cl)C[C@@H]1c1nc(-c2ccccc2)no1
71 | 578 s | CCOC(=O)c1c(CN2CCOCC2)n(C)c2ccc(O)cc12
72 | 733 s | O=S(=O)(c1cccc(F)c1)N1CC(F)(F)C[C@H]1CN1CCc2ccccc2C1
73 | 789 s | COC(=O)C1=CN(c2ccc(F)cc2)c2cc(F)ccc2S1(=O)=O
74 | 822 s | COc1ccc(Cc2nc(-c3ccc4nnc(C)n4c3)no2)cc1Cl
75 | 891 s | Cn1cc(-c2cc3n(n2)CCC(=O)N3CC(=O)NCCC2=CCCCC2)c2ccccc21
76 | 731 s | CCOc1ccc2nc(C(=O)NC(C)C)cn2n1
77 | 1270 s | CCCCCn1c(=O)c2ccccc2n(Cc2nc(-c3cc(OC)cc(OC)c3)no2)c1=O
78 | 654 s | CS(=O)(=O)N1CCCc2cc(C(=O)N3CCOCC3)ccc21
79 | 674 s | COCC(C)(O)CNS(=O)(=O)c1ccc(F)cc1C (stereo not given)
80 | 1010 s | CC1CCCCN1C(=O)Cn1c(=O)n(C2CCCCC2)c(=O)c2ccccc21 (stereo not given)
81 | 1140 s | O=C1CN(S(=O)(=O)c2ccccc2F)CC2(CCCCC2)N1C1CCCC1
82 | 619 s | COc1ccccc1N1CCN(c2cc(C(=O)O)c3cc(NS(C)(=O)=O)ccc3n2)CC1
83 | 830 s | COc1ccccc1C(=O)N1CCCC(COc2ccc(C(=O)NC(C)C)cc2)C1 (stereo not given)
84 | 570 s | COc1ccc(NC(=O)N2CCCN(C3CCN(Cc4ccc(F)cc4)C3=O)CC2)cc1 (stereo not given)
85 | 745 s | O=C(Nc1ccccc1F)N1CCN(Cc2nc3ccc(Cl)cc3o2)CC1
86 | 768 s | CC1=C(c2ccccc2)S(=O)(=O)N=C1N1CCCN(C(=O)NCC(C)C)CC1
87 | 796 s | Cc1noc(C)c1S(=O)(=O)N1CCC(c2noc(-c3cccnc3)n2)C1 (stereo not given)
88 | 875 s | CCN1C(=O)C(C)(C(=O)Nc2ccc(F)cc2F)Oc2cccnc21 (stereo not given)
89 | 880 s | Nc1c(C(=O)Nc2ccc([N+](=O)[O-])cc2)oc2ccccc12
90 | 719 s | NC(=O)c1cc2cc(Br)ccc2[nH]1

Source: the METLIN SMRT retention time set (Domingo-Almenara et al. 2019)
